This data set deals with OVSAHO cells. Kind of data set: cell viability of OVSAHO cells. Type of data set: cell-based. The settings on record: for effect of combining the drug with 1 on inhibiting OVSAHO cells: compared with 1 alone; for 24 h cytotoxicity against OVSAHO: drug alone.

`CC(C)(C)c1ccc(S(=O)(=O)/C=C/C#N)cc1` [BAY11–7085]: the “effect of combining the drug with 1 on inhibiting OVSAHO cells” value (shortened to “effect … on inhibiting OVSAHO cells”) (combined with 1 (20 μM), 24 h) is on record as “slightly enhances”. For `CC(C)C[C@H](NC(=O)[C@H](Cc1ccccc1)NC(=O)c1cnccn1)B(O)O` [BTZ, bortezomib], the “effect … on inhibiting OVSAHO cells” value (combined with 1 (20 μM), 24 h) is reported as “No inhibition enhancement”. Turning to `COC(=O)[C@@]1(O)C[C@H]2O[C@]1(C)n1c3ccccc3c3c4c(c5c6ccccc6n2c5c31)C(=O)NC4` [K252A], the “effect … on inhibiting OVSAHO cells” value (combined with 1 (20 μM), 24 h) is reported as “slightly enhances”. `O=C(C1CC1)N1CCN(Cn2sc3ccccc3c2=O)CC1` [LOC14]: the “effect … on inhibiting OVSAHO cells” value (combined with 1 (20 μM), 24 h) is on record as “No inhibition enhancement”. With `N.N.[Cl][Pt][Cl]` [cisplatin], the “effect … on inhibiting OVSAHO cells” value (combined with 1 (20 μM), 24 h) was “slightly enhances”.

On to `COc1cccc2c1C(=O)c1c(O)c3c(c(O)c1C2=O)C[C@@](O)(C(=O)CO)C[C@@H]3O[C@H]1C[C@H](N)[C@H](O)[C@H](C)O1` [doxorubicin], for which the “cell viability of OVSAHO treated with 1 combined with the drug” value (combined with 1 (20 μM), 24 h) is approximately 20%. Besides, the “24 h cytotoxicity against OVSAHO” value (1.25 μM) was “around 75%”, the “24 h cytotoxicity against OVSAHO” value (2.5 μM) was “around 75%” and the “24 h cytotoxicity against OVSAHO” value (5 μM) is on record as “around 75%”. For `CC(=O)O[C@H]1C(=O)[C@@]2(C)[C@H]([C@H](OC(=O)c3ccccc3)[C@]3(O)C[C@H](OC(=O)[C@H](O)[C@@H](NC(=O)c4ccccc4)c4ccccc4)C(C)=C1C3(C)C)[C@]1(OC(C)=O)CO[C@@H]1C[C@@H]2O` [paclitaxel], the “effect … on inhibiting OVSAHO cells” value (combined with 1 (20 μM), 24 h) is “No inhibition enhancement”. On to `Cn1ncnc1[C@H]1c2n[nH]c(=O)c3cc(F)cc(c23)N[C@@H]1c1ccc(F)cc1` [talazoparib], for which the “effect … on inhibiting OVSAHO cells” value (combined with 1 (20 μM), 24 h) was “No inhibition enhancement”. As for PACMA31, the “effect … on inhibiting OVSAHO cells” value (combined with 1 (20 μM), 24 h) was “No inhibition enhancement”.
